According to the METLIN SMRT retention time set (Domingo-Almenara et al. 2019):

Experiment: gradient 5% acetonitrile 3 min, to 50% in 2 min, to 85% in 15 min, held 3 min, 100 µL/min
Conditions: column: Zorbax Extend-C18 2.1 x 50 mm; eluents: water / acetonitrile, 0.1% formic acid
Procedure, shortened: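 The mobile phases were water and acetonitrile, each with 0.1% formic acid, pumped at 100 μL/min through a Zorbax Extend-C18 column (2.1 × 50 mm, 1.8 μm). Pure standards were injected as mixtures of ~100 molecules and detected by a quadrupole time-of-flight mass spectrometer in positive and negative ionization mode. Retention time came from computationally picked adduct peaks, each inspected by hand.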

Compound	RP-LC retention time [s]
CCn1nccc1C(=O)Nc1cc(-c2cc3c(OC)cccc3n2CC)[nH]n1	879
C=C1CC(COc2cc(=O)oc3ccccc23)(c2ccccc2)OC1=O (configuration not stated)	885
Cc1cc(C)n(CC(=O)N2CCCCCC2c2nnc(C)o2)n1 (configuration not stated)	631
CC(C)(C)c1cc(NC(=O)COc2ccccc2F)n(CCO)n1	759
CCSc1nnc(-c2nn(C)c3c2CN(S(=O)(=O)c2cc(Cl)ccc2OC)CC3)n1CC	975
COc1cccc(CNC(=O)C2CCCN(c3ncnc4c3nc3n4CCCCC3)C2)c1 (configuration not stated)	736
O=C1c2cccc3c2[C@@H](CCC3)CN1[C@@H]1CN2CCC1CC2	664
Cc1ccc(-c2ccc(=O)n(Cc3nc(-c4ccc(F)cc4)no3)n2)cc1	1090
O=C(C1CC1)N1CCCC1c1nc2ccccc2s1 (configuration not stated)	768
Cc1c(F)cccc1NC(=O)N1CCN(C2=CC3=NC(C)CN3C=N2)CC1 (configuration not stated)	649
CC(C)n1cc(S(=O)(=O)NCc2cccc(F)c2)c2cccnc21	926
COC(=O)Cn1c(C)cc(=O)c2cccc(F)c21	549
COCCCNC(=O)CN1C(=O)CCn2nc(-c3cn(C)c4ccccc34)cc21	685
Cc1ccccc1Nc1c(-c2ccc(N(C)C)cc2)nc2cccc(C)n12	811
N#Cc1ccsc1NC(=O)CCSc1ccccc1	879
COc1cc(CN2CC[C@@H]3CN(S(C)(=O)=O)[C@@H]3C2)ccc1F	598
O=C(Nc1ccc(OCc2nnc(-c3ccccc3)o2)cc1)c1ccc(Br)o1	936
O=C(NCCc1c[nH]c2ccccc12)c1cc(=O)c(OCc2ccc(F)cc2)co1	765
O=S(=O)(Nc1cccc(-c2nc(-c3cccc(Br)c3)co2)c1)c1cccs1	1230
Cc1cc2nc(C(F)(F)F)c(=O)n(C(C)C(=O)NCc3ccco3)c2cc1C (configuration not stated)	756
CCCOc1ccc(-c2nc(-c3ccc(N)cc3)cs2)cc1	1120

Compound	RP-LC retention time [s]
Cc1ccc(C(N)=Nc2ccccc2)cc1	650
COc1ccccc1OCCN1C(=O)C(NC(C)=O)c2ccccc21 (configuration not stated)	666
CCN1CCN(c2ccc(N3CCCC(C(=O)N4CCN(c5ccccn5)CC4)C3)nn2)CC1 (configuration not stated)	574
O=c1c2cc(-c3ccc(F)cc3)nn2cnn1Cc1nc(-c2ccc(Cl)c(F)c2)no1	1260
CCc1nnc2c(=O)n(CC(=O)NCc3ccccc3)c3cccnc3n12	688
COc1ccc(N2CCN(C(=O)C3CCCN(c4cnc5nccnc5c4)C3)CC2)cc1 (configuration not stated)	737
CCOC(=O)c1[nH]c(C)c(CCC(=O)N2CCCC(C(=O)NC3CCCCC3)C2)c1C (configuration not stated)	822
O=C1CN(C(=O)c2cccc(C(F)(F)F)c2)c2ccccc2N1	732
Cc1nc(-c2ccccc2)c(-c2ccncc2)o1	855
N#Cc1ccc(NC(=O)C2Oc3ccccc3NC2=O)cc1 (configuration not stated)	727
CC1=C(C(=O)Nc2ccccc2C)C(c2ccc(Cl)cc2Cl)NC(=O)N1 (configuration not stated)	704
Cc1cccc(CNC2=NCCNC23CCN(S(=O)(=O)c2cc(C)cc(C)c2)CC3)c1	787
Cc1cccc(C)c1NC(=O)Nc1ccc(S(N)(=O)=O)cc1	751
CC(C)NC(=O)CN1C(=O)C2CCCCN2c2ccc(S(=O)(=O)N3CCCC3)cc21 (configuration not stated)	810
C=Cc1ccc(CSc2nnc3c(S(=O)(=O)N4CCCC4)cccn23)cc1	884
CCN1CCCCc2cc(C(=O)NCC(F)F)sc21	892
Cc1cc(C)n(-c2ccnc(N3CCc4ccccc4C3)n2)n1	1150
Cc1ccc(F)c(NS(=O)(=O)c2cc3c(s2)CCN(C(=O)C2CCC2)C3)c1	891
CCOCCCNS(=O)(=O)c1cc(-c2nc(C)c(C)s2)sc1C	961
O=C(CCSc1ccccc1)NCCn1nc(-c2ccc(Cl)cc2)ccc1=O	600

Now from value to molecule:

RP-LC retention time [s]	Compound
751	CC(C)CC(=O)N1C[C@H](c2nc(-c3cccnc3)no2)[C@@H](C)C1
1200	CCCn1nnc(NCc2ccc(-c3ccc(Cl)cc3Cl)o2)n1
596	CCOC(=O)C1=C(CN2CCN(c3ccccn3)CC2)NC(=O)NC1c1ccccc1 (configuration not stated)
732	CCCCNC(=O)C1CCN(C(=O)Nc2ccc(NC(=O)NC3CCCCC3)cc2)CC1
1000	CCOC(=O)c1nc(N(Cc2ccccc2)C(C)C)c2ccccc2n1
840	CCc1cccc(NC(=O)C2CCN(S(=O)(=O)c3cn(C(C)C)cn3)CC2)c1
1060	Cc1ccc(Cc2nc(C3CC(=O)N(c4ccc(Cl)cc4)C3)no2)cc1 (configuration not stated)
965	Cc1nc(-c2ccc3c(c2)CCN3C(=O)Cc2cccs2)cs1
792	CNC(=O)N1CCCC(c2cccc(C(=O)NC(C)c3ccc(F)cc3)c2)C1 (configuration not stated)
1110	CCN(CC)c1nc2cc(C(=O)OC)ccc2c(=O)n1-c1cccc(OC)c1
805	CS(=O)(=O)Nc1ccc(-c2noc(CN3C(=O)COc4ccccc43)n2)cc1
760	O=C(NCc1ccccc1)C1CCN(S(=O)(=O)c2cc(C(=O)N3CCCC3)cs2)CC1
1020	CCC1Oc2ccc(S(=O)(=O)N3CCC(C(=O)Nc4ccc(C)c(Cl)c4)CC3)cc2NC1=O (configuration not stated)
756	Cc1noc(COC2CCCN(C(=O)NCCc3ccccc3)C2)n1 (configuration not stated)
976	CCOc1ccc2nc(NC(=O)C3CCCN3S(=O)(=O)c3cc(C(=O)OC)n(C)c3)sc2c1 (configuration not stated)
731	CCCn1cnc2cc(-c3noc(C(C)NS(=O)(=O)c4ccc(C)cc4)n3)ccc21 (configuration not stated)
928	Cc1ccc(S(=O)(=O)N2CC3CN(C(=O)COc4cccc(C)c4)CC(C2)O3)cc1
895	Cc1ccc(NC(=O)N2C[C@@H](F)C[C@H]2C(=O)N2CCc3ccccc3C2)cc1Cl
629	COCCCNC(=O)c1ccc2c(c1)nc(C)n2-c1ccc(Br)cc1
701	Cc1ccc(NS(=O)(=O)c2cc(-c3[nH]ncc3C(=O)N3CCOCC3)oc2C)c(F)c1
762	COc1ccc(CCS(=O)(=O)Nc2ccc3c(c2)N(C(=O)C2CCCO2)CC3)cc1 (configuration not stated)
774	CCn1cnc2ccc(-c3noc(Cc4ccc(Cl)cc4)n3)cc21
715	COC(=O)c1ccc(NC(=O)C2CCN(c3cc(N4CCCCC4)ncn3)CC2)cc1
615	O=C(CCc1nnn2c1CN(C(=O)c1ccccc1F)CC2)NC1CC1
686	CCCCC(=O)N(C)CCc1noc(-c2ccc(C(=O)N3CCOCC3)cc2)n1
633	CCN(CC)CCCNC(=O)C1c2ccccc2C(=O)N1Cc1ccc(C)cc1 (configuration not stated)
